The source of these data is patent publication US9000025B2, “Autotaxin inhibitors and uses thereof” (Amira Pharmaceuticals, Inc., priority 2010, dated 2015).

A value given as a limit tells only on which side of the number the result lay.

This assay concerns the target T1, autotaxin (ATX) (Homo sapiens, UniProt Q13822).
T1 construct: conditioned medium from the human melanoma cell line, MDA-MB-4355, which endogenously expresses autotaxin; host or cells: MDA-MB-435S human melanoma cells; serum-free conditioned medium, concentrated 20-fold
Description: Native Autotaxin Choline Release Assay. The settings on record: autotaxin in conditioned medium from human melanoma cell line; choline released from LPC; read-out: MDA-MB-435S Assay IC50. The class given is biochemical. The gist of the method:
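Native ATX from conditioned serum-free, phenol-red-free DMEM of confluent cells cultured 48 h; LPC as substrate. Released choline detected with choline oxidase/peroxidase/4-aminoantipyrine colour mix in 50 mM Tris pH 8, 10 min at 37 °C, absorbance 555 nm; choline quantified against standard curve, equated to LPA formed.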
What is called IC50 is the point on the concentration scale where inhibition reaches its midpoint. In the case of `Cc1ccc(-n2cc(-n3c(C)c(Sc4cccc(C(=O)O)c4)c4ccc(Cl)c(F)c43)cn2)cc1` [Compound 3-32, 3-[6-Chloro-7-fluoro-2-methyl-1-(1-p-tolyl-1H-pyrazol-4-yl)-1H-indol-3-ylsulfanyl]-benzoic acid], the IC50 was < 300 nM.

As to `Cc1c(Sc2cccc(C(=O)O)c2)c2ccc(Cl)cc2n1Cc1ccc(F)cc1` [Compound 1-18, 3-[6-Chloro-1-(4-fluoro-benzyl)-2-methyl-1H-indol-3-ylsulfanyl]-benzoic acid], the IC50 was > 1000 nM.

For `Cc1c(Sc2cccc(/C=C/C(=O)O)c2)c2ccc(Cl)cc2n1Cc1ccccc1` [Compound 2-7, (E)-3-[3-(1-Benzyl-6-chloro-2-methyl-1H-indol-3-ylsulfanyl)-phenyl]-acrylic acid], the half-maximal inhibitory concentration (IC50) was > 1000 nM.

As for `CCCn1cc(-n2c(C)c(Sc3cccc(C(=O)O)c3)c3ccc(Cl)c(F)c32)cn1` [Compound 3-24, 3-[6-Chloro-7-fluoro-2-methyl-1-(1-propyl-1H-pyrazol-4-yl)-1H-indol-3-ylsulfanyl]-benzoic acid], the IC50 is < 300 nM.

For the molecule `CCc1cncc(-n2c(C)c(Sc3cccc(C(=O)O)c3F)c3ccc(Cl)cc32)c1` [Compound 1-73, 3-[6-Chloro-1-(5-ethyl-pyridin-3-yl)-2-methyl-1H-indol-3-ylsulfanyl]-2-fluoro-benzoic acid], the IC50 was < 300 nM.

As to `CCOc1ccc(-n2c(C)c(Sc3cccc(C(=O)O)c3)c3ccc(Cl)cc32)cn1` [Compound 1-36, 3-[6-Chloro-1-(6-ethoxy-pyridin-3-yl)-2-methyl-1H-indol-3-ylsulfanyl]-benzoic acid], the IC50 was < 300 nM.

With `Cc1c(Sc2cc(C(=O)O)cc(C(F)(F)F)c2)c2ccc(Cl)cc2n1-c1cccnc1` [Compound 1-46, 3-(6-Chloro-2-methyl-1-pyridin-3-yl-1H-indol-3-ylsulfanyl)-5-trifluoromethyl-benzoic acid], the IC50 is > 1000 nM.

On to `Cc1[nH]c2cc(Cl)ccc2c1Sc1cccc(B(O)O)c1` [Compound 2-1, 3-(6-Chloro-2-methyl-1H-indol-3-ylsulfanyl)-phenylboronic acid], for which the IC50 was > 1000 nM.

Turning to `COc1ccc(Cn2cc(-n3c(C)c(Sc4cccc(C(=O)O)c4)c4ccc(Cl)c(F)c43)cn2)cc1` [Compound 3-48, 3-{6-Chloro-7-fluoro-1-[1-(4-methoxy-benzyl)-1H-pyrazol-4-yl]-2-methyl-1H-indol-3-ylsulfanyl}-benzoic acid], the IC50 was < 300 nM.

Turning to `Cc1c(Sc2cccc(CC(=O)O)c2)c2cc(Cl)ccc2n1C` [Compound 3-12, [3-(5-Chloro-1,2-dimethyl-1H-indol-3-ylsulfanyl)-phenyl]-acetic acid], the concentration for half-maximal inhibition (IC50) was > 1000 nM.

In the case of `Cc1c(Sc2cccc(C(=O)O)c2)c2ccc(Cl)cc2n1C(C)c1ccccc1` (stereo not drawn) [Compound 1-19, 3-[6-Chloro-2-methyl-1-(1-phenyl-ethyl)-1H-indol-3-ylsulfanyl]-benzoic acid], the IC50 is > 1000 nM.

As to `CCn1cc(-n2c(C)c(Sc3ccc(F)c(C(=O)O)c3)c3ccc(Cl)cc32)cn1` [Compound 1-76, 5-[6-chloro-1-(1-ethyl-1H-pyrazol-4-yl)-2-methyl-1H-indol-3-ylsulfanyl]-2-fluoro-benzoic acid], the half-maximal inhibitory concentration (IC50) is < 300 nM.

As for `Cc1c(Sc2cccc(C(=O)O)c2)c2ccc(Cl)cc2n1C` [Compound 1-6, 3-(6-Chloro-1,2-dimethyl-1H-indol-3-ylsulfanyl)-benzoic acid], the IC50 is > 1000 nM.

Regarding `Cc1c(Sc2cccc(C(=O)O)c2)c2ccc(Cl)c(F)c2n1-c1cnn(CCO)c1` [Compound 3-50, 3-{6-Chloro-7-fluoro-1-[1-(2-hydroxy-ethyl)-1H-pyrazol-4-yl]-2-methyl-1H-indol-3-ylsulfanyl}-benzoic acid], the 50% inhibitory concentration (IC50) was < 300 nM.

For the molecule `CCCn1cc(-n2c(C)c(Sc3cc(F)cc(C(=O)O)c3)c3ccc(Cl)c(F)c32)cn1` [Compound 4-5, 3-[6-Chloro-7-fluoro-2-methyl-1-(1-propyl-1H-pyrazol-4-yl)-1H-indol-3-ylsulfanyl]-5-fluoro-benzoic acid], the concentration for half-maximal inhibition (IC50) was < 300 nM.
